# Reference: US12102063B2 (SYNEXIS LLC, priority 2017, dated 2024)
# “And” between values parts separate entries of the source, which are not always exact repeats. Identical values can stand only once. Like-named read-outs stand apart in the source and are kept apart here.
# How the values were obtained:
# [1] = tested on: C. difficile (endospores) ATCC 43598
# [2] = tested on: bacteria; settings: end of test period (30 days), three locations
# Procedure: In addition, bacterial contamination in the egg room is assessed by placing blood agar plates at three locations in the room (East, North, and West) at 0, 7, and 30 days, and bacterial growth is assessed after 24 hours.
# [3] = tested on: S. aureus ATCC 33592 (MRSA)
# Procedure: 24 and 48 hour test cultures of S. aureus, as well as all A. brasiliensis and C. difficile are prepared with 0.1% Triton X-100. A 6 hour test culture of S. aureus is prepared with 5.0% Petal Bovine Serum and no Triton. Carriers (slides) are inoculated, in duplicate per test microorganism per condition, at a target concentration of 1×10^6 CPU/Carrier. Inoculated carriers are allowed to dry at ambient temperatures, and are then placed in respective conditions to endure contact times. Carriers for S. aureus endured contact times of 6, 24, and 48 hours. Carriers for A. brasiliensis endured contact times of 12, 24, and 48 hours. […] After respective contact times, carriers are harvested in 10.0 mL of D/E Broth, vortex mixed, diluted, and plated on the appropriate growth media for each microorganism. Environmental conditions are monitored using the Drager Rohrchen, and Drager Polytron methods described in Example 1. (Note: The limit of detection for this assay is 5.0 CPU. Samples with no detectable colonies are listed as <5.00E+OO in the table).
# [4] = second contact time (48 hours), Hood (Treated)
# [5] = second contact time (48 hours), Room (Treated)
smiles,measurement,setting,value
"OO [DHP, dry hydrogen peroxide]",Average CFU/Carrier,"[1]; 24 Hours, Hood (Treated)",2.75E+06 CFU/Carrier
same,Log Reduction compared to Control,"[1]; 24 Hours, Hood (Treated)",None
same,Percent Reduction compared to Control,"[1]; 24 Hours, Hood (Treated)",None
same,Average CFU/Carrier,"[1]; 24 Hours, Room (Treated)",1.53E+06 CFU/Carrier
same,Log Reduction compared to Control,"[1]; 24 Hours, Room (Treated)",0.07 Log
same,Percent Reduction compared to Control,"[1]; 24 Hours, Room (Treated)",13.96%
same,Average CFU/Carrier,"[1]; 72 Hours, Hood (Treated)",1.80E+06 CFU/Carrier
same,Log Reduction compared to Control,"[1]; 72 Hours, Hood (Treated)",0.31 Log
same,Percent Reduction compared to Control,"[1]; 72 Hours, Hood (Treated)",51.02%
same,Average CFU/Carrier,"[1]; 72 Hours, Room (Treated)",3.35E+06 CFU/Carrier
same,Log Reduction compared to Control,"[1]; 72 Hours, Room (Treated)",0.04 Log
same,Percent Reduction compared to Control,"[1]; 72 Hours, Room (Treated)",8.84%
same,Average CFU/Carrier,[1]; [4],3.10E+06 CFU/Carrier
same,Log Reduction compared to Control,[1]; [4],0.24 Log
same,Percent Reduction compared to Control,[1]; [4],42.06%
same,Average CFU/Carrier,[1]; [5],3.53E+06 CFU/Carrier
same,Log Reduction compared to Control,[1]; [5],0.18 Log
same,Percent Reduction compared to Control,[1]; [5],34.11%
same,"number of bacterial colonies on the blood agar plates, total",[2],about 30
same,% Reduction compared,"[3]; 6 Hours, Hood (Treated)",95.150%
same,Log Reduction compared to,"[3]; 6 Hours, Hood (Treated)",1.31 Log
same,% Reduction compared,"[3]; 6 Hours, Room (Treated)",83.053%
same,Log Reduction compared to,"[3]; 6 Hours, Room (Treated)",0.77 Log
same,% Reduction compared,"[3]; 24 Hours, Hood (Treated)",>66.667%
same,Log Reduction compared to,"[3]; 24 Hours, Hood (Treated)",>0.48 Log
same,Replicate CFU/Carrier,"[3]; 24 Hours, Hood (Treated)",<5.00E+00 CFU/Carrier
same,% Reduction compared,"[3]; 24 Hours, Room (Treated)",>88.889%
same,Average CFU/Carrier,"[3]; 24 Hours, Room (Treated)",<5.00E+00 CFU/Carrier
same,Log Reduction compared to,"[3]; 24 Hours, Room (Treated)",>0.95 Log
same,Replicate CFU/Carrier,"[3]; 24 Hours, Room (Treated)",5.00E+00 CFU/Carrier and <5.00E+00 CFU/Carrier
same,% Reduction compared,"[3]; 48 Hours, Hood (Treated)",>78.947%
same,Log Reduction compared to,"[3]; 48 Hours, Hood (Treated)",>0.68 Log
same,Replicate CFU/Carrier,"[3]; 48 Hours, Hood (Treated)",<5.00E+00 CFU/Carrier
same,% Reduction compared,"[3]; 48 Hours, Room (Treated)",>89.474%
same,Average CFU/Carrier,"[3]; 48 Hours, Room (Treated)",<5.00E+00 CFU/Carrier
same,Log Reduction compared to,"[3]; 48 Hours, Room (Treated)",>0.98 Log
same,Replicate CFU/Carrier,"[3]; 48 Hours, Room (Treated)",<5.00E+00 CFU/Carrier
